Consider four compounds from ChEMBL document CHEMBL4033765, “Synthesis and Evaluation of a Linkable Functional Group-Equipped Analogue of the Epothilones” (2017).

One test deals with A549. As to the kind of experiment: Growth inhibition of human A549 cells after 4 days by SRB assay. Format: functional. Conditions: A549, 96 h.
Another test has as its system PC-3. The test can be described thus: Growth inhibition of human PC3 cells after 4 days by SRB assay. Type of test: functional. The settings on record: PC-3, 96 h.

As to `CC(=O)NCCCC[C@H]1C(=O)C(C)(C)[C@@H](O)CC(=O)O[C@H](/C(C)=C/c2csc(C)n2)C[C@@H]2O[C@]2(C)CCC[C@H](C)[C@@H]1O`, the GI50 came out at 1 nM in the test with A549 and 2 nM in the test on PC-3.

Regarding `COCCOCCC(=O)NCCCC[C@H]1C(=O)C(C)(C)[C@@H](O)CC(=O)O[C@H](/C(C)=C/c2csc(C)n2)C[C@@H]2O[C@]2(C)CCC[C@H](C)[C@@H]1O`, the GI50 in the test on A549 worked out at 0.9 nM; with PC-3, 1.9 nM.

In the case of `CC(=O)O[C@H]1C(=O)[C@@]2(C)[C@H]([C@H](OC(=O)c3ccccc3)[C@]3(O)C[C@H](OC(=O)[C@H](O)[C@@H](NC(=O)c4ccccc4)c4ccccc4)C(C)=C1C3(C)C)[C@]1(OC(C)=O)CO[C@@H]1C[C@@H]2O` [PACLITAXEL], the GI50 with A549 amounted to 3.7 nM; with PC-3 it was 5.8 nM.

For the compound `C/C(=C\c1csc(C)n1)[C@@H]1C[C@@H]2O[C@]2(C)CCC[C@H](C)[C@H](O)[C@@H](C)C(=O)C(C)(C)[C@@H](O)CC(=O)O1` [PATUPILONE], the GI50 with A549 was 0.7 nM; in the test on PC-3 it was 1.7 nM.
